Experimental data published in the supplement of paper PMC10307832.

Assays:
Assay in all cases: relative viability (nuclei count vs DMSO), 5 days (fraction); higher = more cells survive
AZD1208 + Alpelisib = compound: N[C@@H]1CCCN(c2c(/C=C3\SC(=O)NC3=O)cccc2-c2ccccc2)C1 [AZD1208] + Cc1nc(NC(=O)N2CCC[C@H]2C(N)=O)sc1-c1ccnc(C(C)(C)C(F)(F)F)c1 [Alpelisib] (partner 2 µM)
How it was run: (§1)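 Dosing by pin tool came one day after lung cancer cell lines were seeded in 1536-well plates, using either one drug or a fixed anchor-drug dose plus five library-drug doses (not always all listed) in √10 steps. After 5 days, nuclei were counted on 4× images. Relative viability is treated-well nuclei count divided by vehicle-well nuclei count, and values are medians of duplicate plates.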

XMD14-99 + Lapatinib = compound: CN1CCN(CC1)C2=CC(=C(C=C2)NC3=NC(=C(S3)C(=O)C4=C(C=CC=C4Cl)Cl)N)OC [XMD14-99] + CS(=O)(=O)CCNCc1ccc(-c2ccc3ncnc(Nc4ccc(OCc5cccc(F)c5)c(Cl)c4)c3c2)o1 [Lapatinib] (partner 2 µM)
How it was run: as §1

XMD14-99 + Pictilisib = compound: CN1CCN(CC1)C2=CC(=C(C=C2)NC3=NC(=C(S3)C(=O)C4=C(C=CC=C4Cl)Cl)N)OC [XMD14-99] + CS(=O)(=O)N1CCN(Cc2cc3nc(-c4cccc5[nH]ncc45)nc(N4CCOCC4)c3s2)CC1 [Pictilisib] (partner 1 µM)
How it was run: as §1

AZD1208 + Lapatinib = compound: N[C@@H]1CCCN(c2c(/C=C3\SC(=O)NC3=O)cccc2-c2ccccc2)C1 [AZD1208] + CS(=O)(=O)CCNCc1ccc(-c2ccc3ncnc(Nc4ccc(OCc5cccc(F)c5)c(Cl)c4)c3c2)o1 [Lapatinib] (partner 2 µM)
How it was run: as §1

Row | Cell Line | relative viability (AZD1208 + Alpelisib; first compound 0.08 µM) | relative viability (AZD1208 + Alpelisib; first compound 0.253 µM) | relative viability (AZD1208 + Alpelisib; first compound 2.53 µM) | relative viability (AZD1208 + Alpelisib; first compound 8 µM) | relative viability (XMD14-99 + Lapatinib; first compound 0.08 µM) | relative viability (XMD14-99 + Lapatinib; first compound 0.8 µM) | relative viability (XMD14-99 + Lapatinib; first compound 2.53 µM) | relative viability (XMD14-99 + Lapatinib; first compound 8 µM) | relative viability (XMD14-99 + Pictilisib; first compound 0.08 µM) | relative viability (XMD14-99 + Pictilisib; first compound 0.8 µM) | relative viability (XMD14-99 + Pictilisib; first compound 2.53 µM) | relative viability (XMD14-99 + Pictilisib; first compound 8 µM) | relative viability (AZD1208 + Lapatinib; first compound 0.08 µM) | relative viability (AZD1208 + Lapatinib; first compound 0.253 µM) | relative viability (AZD1208 + Lapatinib; first compound 2.53 µM) | relative viability (AZD1208 + Lapatinib; first compound 8 µM) | relative viability (AZD1208 + Alpelisib; first compound 0.8 µM) | relative viability (AZD1208 + Lapatinib; first compound 0.8 µM)
1 | LCLC-97TM1 | 0.267 | 0.212 | 0.169 | 0.199 | 1.06 | 0.815 | 0.786 | 0.583 | 0.165 | 0.217 | 0.17 | 0.172 | 1.03 | 0.92 | 0.882 | 0.546 | – | –
2 | NCI-H1703 | 0.338 | 0.302 | 0.31 | 0.287 | 0.9 | 0.976 | 0.972 | 0.793 | 0.276 | 0.269 | 0.27 | 0.22 | 0.852 | 1.04 | 1.05 | 0.626 | 0.301 | 0.804
3 | RERF-LC-KJ | 0.708 | 0.762 | 0.652 | 0.607 | 0.849 | 0.837 | 0.799 | 0.829 | 0.668 | 0.521 | 0.487 | 0.477 | 0.819 | 0.896 | 0.679 | 0.562 | 0.703 | 0.698
4 | BEN | 0.876 | 1.1 | 0.673 | 0.507 | 0.738 | 0.825 | 0.661 | 0.627 | 0.554 | 0.523 | 0.641 | 0.442 | 0.677 | 0.449 | 0.568 | 0.437 | 0.704 | 0.524
5 | NCI-H1666 | 0.815 | 0.821 | 0.765 | 0.894 | 0.741 | 0.582 | 0.721 | 0.399 | 0.449 | 0.448 | 0.403 | 0.343 | 0.442 | 0.574 | 0.389 | 0.456 | 0.577 | 0.452
6 | LC-2-ad | 0.816 | 0.592 | 0.894 | 0.794 | 0.955 | 0.926 | 0.908 | 0.764 | 0.488 | 0.439 | 0.49 | 0.32 | 0.961 | 1.01 | 0.94 | 1.03 | 0.787 | 1.04
7 | SW 1573 | 0.65 | 0.705 | 0.505 | 0.592 | 1.06 | 1.17 | 1.21 | 0.985 | 0.434 | 0.531 | 0.496 | 0.547 | 1.02 | 1.07 | 1.01 | 1.05 | 0.595 | 0.959
8 | COR-L 105 | 1.06 | 0.94 | 1.06 | 0.807 | 0.404 | 0.293 | 0.354 | 0.32 | 0.363 | 0.374 | 0.34 | 0.357 | 0.366 | 0.334 | 0.29 | 0.36 | 0.763 | 0.299
9 | NCI-H1975 | 0.603 | 0.64 | 0.63 | 0.607 | 0.906 | 0.938 | 0.801 | 0.727 | 0.286 | 0.317 | 0.257 | 0.197 | 0.916 | 1.1 | 0.893 | 1.07 | 0.617 | 0.838
